Results as given in patent publication US11390582B2, “Polymorphs of 1-(4-benzyloxy-benzyl)-3-methyl-thiourea” (Seoul National University R&DB Foundation, priority 2019, dated 2022).

How the values were obtained:
Type in all cases: physicochemical
[1] = Hygroscopicity test through dynamic vapor sorption (DVS); conditions: for Hygroscopicity (25° C./80% RH): DVS; for Morphology Change: after DVS hygroscopicity test
Source text: Experimental Example 3. Hygroscopicity Test Through Dynamic Vapor Sorption (DVS)
From a pharmaceutical point of view, it is desired to maintain the initial moisture and morphology without absorbing moisture even in a moisture environment.

[2] = Stability test of crystalline forms A and B (25° C./60% RH and 40° C./75% RH, 1 week); conditions: for Increase of impurities under given conditions: 25° C./60% RH and 40° C./75% RH; for Increase of impurities under given conditions / Change of crystalline form: in words
Source text: Experimental Example 4. Stability Test
(§1) From a pharmaceutical point of view, the stability of an active ingredient is very important. It is not preferable pharmaceutically that impurities are excessively produced or the crystalline form is changed under a storage condition.

[3] = Stability test under storage condition at room temperature (crystalline form A, up to 6 months); conditions: for Crystalline form / Purity (%): room temperature storage
Source text: Experimental Example 5. Stability Test Under Storage Condition
as §1

[4] = storage conditions at room temperature, in words

## CNC(=S)NCc1ccc(OCc2ccccc2)cc1 [Crystalline form A, 1-(4-benzyloxy-benzyl)-3-methyl-thiourea]
[1]; 80% moisture condition, in words
  Moisture content compared between forms: contains less moisture under 80% moisture condition than crystalline form B
[1]
  Hygroscopicity (25° C./80% RH): 0.07%
  Morphology Change: No
[2]
  Increase of impurities under given conditions: impurities were not increased
[2]; 25° C./60% RH, 1 week
  Final crystalline form: form A
  HPLC Purity (area %): 99.71 area %
[2]; 40° C./75% RH, 1 week
  Final crystalline form: form A
  HPLC Purity (area %): 99.66 area %
[2]; Initial
  HPLC Purity (area %): 99.55 area %
[3]; 1 month
  Crystalline form: form A
  Purity (%): 100.0%
[3]; 3 months
  Crystalline form: form A
  Purity (%): 100.0%
[3]; 6 months
  Crystalline form: form A
  Purity (%): 100.0%
[3]; Initial
  Crystalline form: form A
  Purity (%): 100.0%
[3]; [4]
  Change of crystalline form: the crystalline form was not changed
  Increase of impurities: impurities were not increased

## CNC(=S)NCc1ccc(OCc2ccccc2)cc1 [Crystalline form B, 1-(4-benzyloxy-benzyl)-3-methyl-thiourea]
[1]
  Hygroscopicity (25° C./80% RH): 0.20%
  Morphology Change: No
[2]
  Increase of impurities under given conditions: impurities were not increased
[2]; 25° C./60% RH, 1 week
  Final crystalline form: forms A + B
  HPLC Purity (area %): 99.70 area %
[2]; 40° C./75% RH, 1 week
  Final crystalline form: form A
  HPLC Purity (area %): 99.72 area %
[2]; Initial
  HPLC Purity (area %): 99.49 area %
[2]; acceleration condition
  Change of crystalline form: all changed into crystalline form A
[2]; storage condition at room temperature
  Change of crystalline form: being changed into crystalline form A
